Experimental data taken from patent US20260138961A1, “MODULATORS OF MITOCHONDRIAL DNA REPLICATION” (Pretzel Therapeutics, Inc., priority 2022, published 2026).

Biological target: T1, POLγA:G848S (Homo sapiens, UniProt P54098, G848S)
T1 sequence (P54098 1-1239 G848S): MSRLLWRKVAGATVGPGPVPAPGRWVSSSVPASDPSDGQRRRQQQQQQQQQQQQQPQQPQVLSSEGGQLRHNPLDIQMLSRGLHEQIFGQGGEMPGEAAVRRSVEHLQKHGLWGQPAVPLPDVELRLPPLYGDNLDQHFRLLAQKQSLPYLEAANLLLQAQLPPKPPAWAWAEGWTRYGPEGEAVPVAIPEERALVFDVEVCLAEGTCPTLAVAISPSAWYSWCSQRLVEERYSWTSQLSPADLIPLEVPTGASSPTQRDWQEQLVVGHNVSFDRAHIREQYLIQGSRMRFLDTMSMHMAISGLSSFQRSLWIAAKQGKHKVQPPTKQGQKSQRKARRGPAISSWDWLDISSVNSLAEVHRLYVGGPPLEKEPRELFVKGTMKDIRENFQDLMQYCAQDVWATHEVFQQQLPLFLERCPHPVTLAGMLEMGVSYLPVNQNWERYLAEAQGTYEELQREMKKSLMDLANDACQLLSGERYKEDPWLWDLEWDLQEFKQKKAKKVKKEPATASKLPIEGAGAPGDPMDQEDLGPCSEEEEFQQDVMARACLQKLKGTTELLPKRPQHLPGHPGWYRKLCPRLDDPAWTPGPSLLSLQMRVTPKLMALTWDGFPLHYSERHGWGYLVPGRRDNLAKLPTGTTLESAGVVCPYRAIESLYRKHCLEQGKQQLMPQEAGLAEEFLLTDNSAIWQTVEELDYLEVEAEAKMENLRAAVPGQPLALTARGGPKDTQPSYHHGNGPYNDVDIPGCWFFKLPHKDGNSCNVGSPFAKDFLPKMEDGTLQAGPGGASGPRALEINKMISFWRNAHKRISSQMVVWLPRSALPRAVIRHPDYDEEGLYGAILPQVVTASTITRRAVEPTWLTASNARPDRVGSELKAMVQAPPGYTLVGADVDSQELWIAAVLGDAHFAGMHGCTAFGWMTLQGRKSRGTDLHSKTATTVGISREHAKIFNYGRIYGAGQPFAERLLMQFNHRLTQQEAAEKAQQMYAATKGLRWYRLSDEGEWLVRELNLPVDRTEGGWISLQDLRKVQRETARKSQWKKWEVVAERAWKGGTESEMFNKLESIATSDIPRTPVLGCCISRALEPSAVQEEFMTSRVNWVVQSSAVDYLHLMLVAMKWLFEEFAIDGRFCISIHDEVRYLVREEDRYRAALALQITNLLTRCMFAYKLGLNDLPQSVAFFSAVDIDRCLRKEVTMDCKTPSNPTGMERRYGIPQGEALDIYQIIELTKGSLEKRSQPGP
T1 sequence (Q9UHN1 1-485 partner): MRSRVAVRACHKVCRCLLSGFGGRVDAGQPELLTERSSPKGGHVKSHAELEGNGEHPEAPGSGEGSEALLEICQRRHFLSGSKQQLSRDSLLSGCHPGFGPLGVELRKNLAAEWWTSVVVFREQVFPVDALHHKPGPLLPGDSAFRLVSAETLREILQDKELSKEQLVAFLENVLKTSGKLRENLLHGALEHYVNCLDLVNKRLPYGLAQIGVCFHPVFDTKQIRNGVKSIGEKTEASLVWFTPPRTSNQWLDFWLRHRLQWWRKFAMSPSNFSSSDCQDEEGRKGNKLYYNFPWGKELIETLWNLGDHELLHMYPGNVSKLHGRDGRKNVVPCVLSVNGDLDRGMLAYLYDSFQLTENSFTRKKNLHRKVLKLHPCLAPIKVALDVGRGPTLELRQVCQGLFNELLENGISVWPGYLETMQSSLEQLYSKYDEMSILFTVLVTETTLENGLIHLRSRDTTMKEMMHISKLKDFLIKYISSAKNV
Test: DNA polymerization assay, POLγA:G848S mutant
Assay type: biochemical
Settings: stimulation of polymerase activity, primed M13mp18 ssDNA, 37° C. 2 hours; read-out: G848S AC50

SMILES	AC50 [µM]
COc1ccccc1-c1nc(NS(=O)(=O)c2cc(C)c(Cl)cc2C)cs1 [Example 155, 4-chloro-N-(2-(2-methoxyphenyl)thiazol-4-yl)-2,5-dimethylbenzenesulfonamide]	4
Cc1cc(S(=O)(=O)Nc2csc(C3CCOCC3)n2)c(C)cc1Cl [Example 167, 4-chloro-2,5-dimethyl-N-(2-(tetrahydro-2H-pyran-4-yl)thiazol-4-yl)benzenesulfonamide]	2
Cc1cc2c(NS(=O)(=O)c3cc(C)c(Cl)cc3C)cccc2[nH]1 [Example 37, 4-chloro-2,5-dimethyl-N-(2-methyl-1H-indol-4-yl)benzenesulfonamide]	> 100
Cc1cc(S(=O)(=O)Nc2csc(C(=O)N(CC(N)=O)C3CCCCC3)n2)c(C)cc1Cl [Example 179, N-(2-amino-2-oxoethyl)-4-((4-chloro-2,5-dimethylphenyl)sulfonamido)-N-cyclohexylthiazole-2-carboxamide]	> 10
Cc1cc(S(=O)(=O)Nc2cc(-c3nccs3)ccc2F)c(C)cc1Cl [Example 61, 4-chloro-N-(2-fluoro-5-(thiazol-2-yl)phenyl)-2,5-dimethylbenzenesulfonamide]	> 100
Cc1nc2cc(NS(=O)(=O)c3cc(C)c(Cl)cc3C)ccc2s1 [Example 71, 4-chloro-2,5-dimethyl-N-(2-methylbenzo[d]thiazol-5-yl)benzenesulfonamide]	> 100

Results, then the molecule that gave them:

AC50 [µM]	SMILES
> 100	Cc1cc(S(=O)(=O)Nc2cccc(C(=O)N3CCC[C@H]3C)c2F)c(C)cc1Cl [Example 57, (R)-4-chloro-N-(2-fluoro-3-(2-methylpyrrolidine-1-carbonyl)phenyl)-2,5-dimethylbenzenesulfonamide]
> 100	Cc1ccc(C)c(S(=O)(=O)Nc2cncc(C(=O)N3CCOCC3)c2)c1 [Example 38, 2,5-dimethyl-N-(5-(morpholine-4-carbonyl)pyridin-3-yl)benzenesulfonamide]
22	CC(=O)N1CCN(C(=O)c2cccc(NS(=O)(=O)c3cc(C)ccc3C)c2)CC1 [Example 30, N-(3-(4-acetylpiperazine-1-carbonyl)phenyl)-2,5-dimethylbenzenesulfonamide]
> 100	Cc1ccc(C)c(S(=O)(=O)Nc2cccc(C(N)=O)c2)c1 [Example 27, 3-((2,5-dimethylphenyl)sulfonamido)benzamide]
12	CC[C@@H]1CCCN1C(=O)c1cccc(NS(=O)(=O)c2cc(C)c(Cl)cc2C)c1 [Example 65, (R)-4-chloro-N-(3-(2-ethylpyrrolidine-1-carbonyl)phenyl)-2,5-dimethylbenzenesulfonamide]
> 100	Cc1cc(S(=O)(=O)Nc2cccc3c2CC(=O)N3)c(C)cc1Cl [Example 36, 4-chloro-2,5-dimethyl-N-(2-oxoindolin-4-yl)benzenesulfonamide]
37	COc1ccc(S(=O)(=O)Nc2cccc(C(=O)N3CCSCC3C#N)c2)cc1 (stereo not shown) [Example 34, N-(3-(3-cyanothiomorpholine-4-carbonyl)phenyl)-4-methoxybenzenesulfonamide]
